From patent publication US20090325952A1, “PYRAZOLO[3,4-B]PYRIDINE COMPOUNDS, AND THEIR USE AS PDE4 INHIBITORS” (Glaxo Group Limited, priority 2006, published 2009)
Counter-ions that a name gives are not always drawn.

Legend:
[1] = test system: LPS-induced pulmonary neutrophilia in rats; experiment: In Vivo Assay 1: LPS induced pulmonary neutrophilia in rats, intratracheal administration; design: species or system rat; settings: rats; for mean inhibition of LPS-induced pulmonary neutrophilia: i.t. aqueous solution, about 2 hours prior to LPS; for estimated ED50 for inhibition of LPS-induced pulmonary neutrophilia: i.t., micronised, aqueous solution in 0.2% Tween 80 in PBS, about 2 hours prior to LPS challenge
Text: This assay is an animal model of acute inflammation in the lung—specifically neutrophilia induced by lipopolysaccharide (LPS)—and allows the study of putative inhibition of such neutrophilia (anti-inflammatory effect) by an intratracheally (i.t.) administered PDE4 inhibitor (“drug”). The PDE4 inhibitors are suitably in dry powder, aqueous solution or aqueous suspension form. I.t. administration is one model of inhaled administration, allowing topical delivery to the lung.
Animals: Male CD (Sprague Dawley Derived) rats supplied by Charles River, United Kingdom are housed in groups of 5 rats per cage, acclimatised after delivery for at least 7 days with bedding/nesting material regularly changed, fed on SDS diet R1 pelleted food given ad lib, and supplied with daily-changed pasteurised animal grade drinking water.
Device for dry powder administration: For these studies, a Penn Century DP-4 dry powder intratracheal (i.t.) delivery device (insufflator) is used for administration of a dry powder blend of vehicle (inhalation grade lactose) and the PDE4 inhibitor compound or salt of the invention (“drug”). Each device is numbered and the sample loading chamber is unscrewed from the main device and weighed. The i.t. delivery needle is also weighed. The drug+lactose blend or inhalation grade lactose (vehicle control) is then added to the sample chamber and this is then re-weighed. The sample chamber is fitted back on to the main device to prevent any drug being lost. This procedure is repeated for all of the Penn century devices to be used in the study (one separate device for each animal). After dosing to the animals, the sample chambers and needles are re-weighed in order to determine the amount of sample that was expelled from the device.
Device for aqueous solution administration: A blunt dosing needle, whose forward end is slightly angled to the needle axis, is used, with a flexible plastic portex canula inserted into the needle. The portex cannula is inserted into the lumen of the blunt stainless steel dosing needle and this is carefully inserted into the back of the animal's throat and into the trachea via the larynx. A known volume (200 microlitres) of the vehicle (0.2% Tween 80™ in saline) or of the solution (or suspension) drug composition is administered into the trachea using a plastic syringe that is attached to the portex cannula and dosing needle. A new internal cannula is used for each different drug group. After dosing, the needle is removed from the trachea and the animals are removed from the table and continually observed until they recover from the effects of anaesthesia. The animals are then returned to the holding cages and given free access to food and water, and are observed and any unusual behavioural changes noted. (Aqueous suspensions can be handled generally similarly.)
Drugs and Materials: Lipopolysaccharide (LPS) (Serotype:0127:B8, e.g. from Sigma, UK; e.g. L3129 prepared by phenol extraction) is dissolved in phosphate-buffered saline (PBS).
For dry powder, aqueous solution or aqueous suspension administration, PDE4 inhibitors are preferably used in size-reduced (e.g. micronised) form, for example according to the Micronisation Example(s) disclosed herein.
For dry powder administration of the drug, the PDE4 inhibitor compound or salt of the invention (drug) is administered as a dry powder blended with inhalation-grade (respiratory-grade) lactose, i.e. as a dry powder composition. The target quantity of dry powder composition administered i.t. to each animal is 2 mg. This remains constant throughout the studies. To achieve different doses, blends of the drug dry powder and lactose, containing different concentrations of the PDE4 inhibitor compound or salt of the invention (drug), are prepared. […]

PDE5 (human recombinant) = PDE5 (human recombinant) (Homo sapiens, UniProt O76074); experiment: Inhibition of PDE5 activity (FP or SPA assays); assay type: biochemical; settings: selectivity PDE4B over PDE5
Text: Human recombinant PDE5 is disclosed in K. Loughney et al., “Isolation and characterisation of cDNAs encoding PDE5A, a human cGMP-binding, cGMP-specific 3′,5′-cyclic nucleotide phosphodiesterase”, Gene, 1998, 216, 139-147.
The ability of compounds to inhibit catalytic activity at PDE4B or 4D (human recombinant), PDE3 (from bovine aorta), PDE5 (human recombinant) or PDE6 (from bovine retina) can optionally be determined by Scintillation Proximity Assay (SPA) in a 96-well format.
Test compounds (as a solution in DMSO, suitably about 2 microlitre (ul) volume of DMSO solution) are preincubated at ambient temperature (room temperature, e.g. 19-23° C.) in Wallac Isoplates (code 1450-514) with PDE enzyme in 50 mM Tris-HCl buffer pH 7.5, 8.3 mM MgCl2, 1.7 mM EGTA, 0.05% (w/v) bovine serum albumin for 10-30 minutes (usually 30 minutes). The enzyme concentration is adjusted so that no more than 20% hydrolysis of the substrate defined below occurs in control wells without compound, during the incubation. […] Bound radioactive product is measured using a WALLAC TRILUX 1450 Microbeta scintillation counter. […] Curves are analysed using ActivityBase and XLfit (ID Business Solutions Limited, 2 Ocean Court, Surrey Research Park, Guildford, Surrey GU2 7QB, United Kingdom) Results are expressed as pIC50 values. […]

Structure (SMILES) | mean inhibition of LPS-induced pulmonary neutrophilia ([1]; about 10 micrograms/kg, dihydrochloride) | mean inhibition of LPS-induced pulmonary neutrophilia ([1]; about 30 micrograms/kg, dihydrochloride) | mean inhibition of LPS-induced pulmonary neutrophilia ([1]; about 100 micrograms/kg, dihydrochloride) | mean inhibition of LPS-induced pulmonary neutrophilia ([1]; about 300 micrograms/kg) | estimated ED50 for inhibition of LPS-induced pulmonary neutrophilia ([1]; dihydrochloride) | PDE4B inhibition compared with PDE5 inhibition (pIC50 values) (PDE5 (human recombinant)) | mean inhibition of LPS-induced pulmonary neutrophilia ([1]; about 10 micrograms/kg) | mean inhibition of LPS-induced pulmonary neutrophilia ([1]; about 30 micrograms/kg) | mean inhibition of LPS-induced pulmonary neutrophilia ([1]; about 100 micrograms/kg) | estimated ED50 for inhibition of LPS-induced pulmonary neutrophilia [1]
CCc1nc2c(cnn2CC)c(NC2CCOCC2)c1CNC(=O)c1ccc(NC(=O)CCCCCCCN(C)CCO)cc1 [Example 1A1, N-{[1,6-Diethyl-4-(tetrahydro-2H-pyran-4-ylamino)-1H-pyrazolo[3,4-b]pyridin-5-yl]methyl}-4-({8-[(2-hydroxyethyl)(methyl)amino]octanoyl}amino)benzamide dihydrochloride] | about 33% | about 56% | about 76% | about 74% | approximately 12.3 micrograms/kg body weight | – | – | – | – | –
CCc1nc2c(cnn2CC)c(NC2CCOCC2)c1CNC(=O)c1ccc(NC(=O)CCCCCCCN(C)CCO)cc1 [Example 1B, N-{[1,6-diethyl-4-(tetrahydro-2H-pyran-4-ylamino)-1H-pyrazolo[3,4-b]pyridin-5-yl]methyl}-4-({8-[(2-hydroxyethyl)(methyl)amino]octanoyl}amino)benzamide] | – | – | – | – | – | inhibit PDE4B more strongly than they inhibit PDE3, PDE5 and PDE6 | about 29% | about 75% | about 59% | approximately 10.1 micrograms/kg body weight
